Results: patent publication US20170368018A1, “USE OF ELLAGIC ACID DIHYDRATE IN PHARMACEUTICAL FORMULATIONS TO REGULATE BLOOD GLUCOSE LEVELS” (HALO LIFE SCIENCE, LLC, priority 2014, published 2017)

Experiments:
MEF cells [1] = test: Glucose uptake, 2-NBDG labeling, flow cytometry, MEFs; assay type: cell-based, mouse
Procedure: Cellular assays were performed using mouse myoblast C2C12 cells and MEF cells. […] Increased glucose uptake was indicated as increasing signal of 2-NBDG ([…]) in cells. Glucose uptake assays were carried out in a final incubation volume of 50 μl consisting of, 2-NBDG), (100 μM) in 1× Phosphate Buffered Saline w/Ca+, Mg+ (PBS++). The same buffer was used for washing cells. Insulin was used as a positive control. All testing compounds were prepared in […] and diluted 1:100 for a final concentration of 0.1% DMSO (vehicle). Cells were culture to 70-90% confluence and then washed twice with PBS++. Cells were incubated for 30 minutes at 37° C. in PBS++. Nuclear stain, HCS CellMask stain (blue, Invitrogen), and/or testing compounds (ellagic acid dihydrate, insulin, or vehicle) were added. Cells were incubated for 30 min at 37° C. Cells were washed twice with PBS++and incubated with 2-NBDG for 10 minutes. Cells were washed thrice with PBS++and then imaged in PBS++. Alternatively, the final PBS wash was removed and cells were incubated with Accutase (Invitrogen) for 10 min at 37° C., neutralized with 10% FBS in 1× PBS, and analyzed by flow cytometry. An additional experiment was performed to measure glucose uptake in C2C12 cells exposed to metformin, insulin and ellagic acid dihydrate 2 (batch 2). FIG. 5C. Glucose uptake in ellagic acid dihydrate treated cell culture was measured and compared to glucose uptake under insulin or ellagic acid treatment. […] Flow cytometry results were run in triplicate with 1000 cells per batch.

MEF cells [2] = test: Glucose uptake, 2-NBDG labeling, high-content imaging (Operetta), MEFs; assay type: cell-based, mouse
Procedure: Increased glucose uptake was indicated as increasing signal of 2-NBDG ([…]) in cells. Glucose uptake assays were carried out in a final incubation volume of 50 μl consisting of, 2-NBDG), (100 μM) in 1× Phosphate Buffered Saline w/Ca+, Mg+ (PBS++). The same buffer was used for washing cells. Insulin was used as a positive control. All testing compounds were prepared in 10% DMSO and diluted 1:100 for a final concentration of 0.1% DMSO (vehicle). Cells were culture to 70-90% confluence and then washed twice with PBS++. Cells were incubated for 30 minutes at 37° C. in PBS++. Nuclear stain, HCS CellMask stain (blue, Invitrogen), and/or testing compounds (ellagic acid dihydrate, insulin, or vehicle) were added. Cells were incubated for 30 min at 37° C. Cells were washed twice with PBS++and incubated with 2-NBDG for 10 minutes. Cells were washed thrice with PBS++and then imaged in PBS++. Alternatively, the final PBS wash was removed and cells were incubated with Accutase (Invitrogen) for 10 min at 37° C., neutralized with 10% FBS in 1× PBS, and analyzed by flow cytometry. An additional experiment was performed to measure glucose uptake in C2C12 cells exposed to metformin, insulin and ellagic acid dihydrate 2 (batch 2). FIG. 5C. Glucose uptake in ellagic acid dihydrate treated cell culture was measured and compared to glucose uptake under insulin or ellagic acid treatment. […] Flow cytometry results were run in triplicate with 1000 cells per batch.

female SWV mice = test: Weight loss and blood glucose in mice, thirty days daily gavage; assay type: in vivo, mouse; details: for body weight lost on average: supplemental pill, gavage daily
Procedure: Weight loss and blood glucose in mice treated with ellagic acid was determined and weight loss and blood glucose in mice treated with ellagic acid dihydrate may be determined by the following procedure. Mice are treated daily for thirty days with ellagic acid or control in the form of a supplemental pill homogenized and suspended in 25% water solution of Cremophor EL. The mice are treated via gavage using the human equivalent dose (LD) of 122.4 mg pill/kg of subject (40.6 mg ellagic acid/kg of the subject), 10× higher dose (HD) of 1224 mg pill/kg of the subject (406 mg ellagic acid/kg of the subject), or control vehicle (25% water solution of Cremophor EL). The LD and HD dose amounts are calculated based on the following assumptions: a human dose is one 603 mg (200 mg ellagic acid) pill/day, taken orally; the average weight of a person is 60 kg, thus, the average dose for a human equals approximately 9.95 mg of the pill (3.3 mg ellagic acid)/kg daily; a mouse equivalent dose requires 12.3 times the human dose per kg. The mice are weighed and treated daily, and blood glucose level are measured every two days for a total one month period.

[3] = system: female SWV mice with STZ induced diabetes; test: Weight loss and blood glucose in mice with STZ induced diabetes; assay type: in vivo, mouse; details: STZ diabetic mice, thirty days
Procedure: Weight loss and blood glucose in diabetes induced mice treated with ellagic acid was determined and weight loss and blood glucose in mice treated with ellagic acid dihydrate may be determined by the following procedures. Induction of Diabetes: Diabetes is induced in mice by intraperitoneal injection with Streptozotocin (STZ 40 mg/kg) daily for five days. The mice are considered hyperglycemic when the glucose level of each dam is above 200 mg/dL. The mice are fasted for 4 hours before STZ injection and glucose measurement. Treatment: The mice are treated daily for thirty days with ellagic acid or control in the form of a supplemental pill homogenized and suspended in 25% water solution of Cremophor EL. The mice are treated for one month via gavage using the human equivalent dose of 122.4 mg pill/kg of subject (40.6 mg ellagic acid/kg of the subject), the human equivalent does of 40.6 mg ellagic acid/kg of the subject using 98% pure ellagic acid, or control vehicle (25% water solution of Cremophor EL). The human equivalent dose is calculated as described in Example 8. Treatments would start two weeks after the last STZ injection in which hyperglycemia is confirmed in the diabetic mice. The mice would be weighed daily and glucose levels would be measured in fasted animals every five days.

mice = test: Activity level in mice; assay type: in vivo, mouse; details: observation by the Applicant in treated mice
From the text: Activity levels in mice treated with ellagic acid dihydrate may be quantified by several procedures, such as those outlined in Turri, M. et al.; QTL Analysis Identifies Multiple Behavioral Dimensions in Ethological Tests of Anxiety in Laboratory Mice; Current Biology; 2001; 11(10): 725-734. Two examples of procedures taught therein follows. Gross Locomotor Activity in Home Cage: Mice are caged singly several days prior to home cage activity monitoring and subsequent testing. Activity in home cages are measured during the first 2 hours of the dark cycle on two consecutive days. Two infrared photo emitter-detector pairs, located outside the clear plastic home cage that divide the cage into three equal areas, are used to record gross locomotor activity on the floor of the home cage as the animal breaks the photo beams. The beam-break activity score consists of the square root of the number of beam breaks for each detector summed across the two test days. Magnitude of Activity in Home Cage: Mice are caged singly several days prior to home cage activity monitoring and subsequent testing. Activity in home cages are measured during the first 2 hours of the dark cycle on two consecutive days. An infrared motion detector located above the top of the home cage is employed to converts all motion sensed within the home cage into arbitrary units, based on the magnitude of activity detected.

[4] = system: AKT / Phos AKT in C2C12 cells; test: AKT:phos AKT ratio by immunocytochemistry, high-content imaging; assay type: cell-based, mouse; details: C2C12, serum starved 1 hr, treated 30 minutes, 4 nM-4 μM, FIG. 8
Procedure: Stimulation of AKT pathways and MAPK pathways in ellagic acid dihydrate, metformin, and insulin treated cell cultures was performed. Insulin stimulates glucose uptake into cells by increasing GLUT4 activation, and AKT, specifically phos-AKT, signaling alters GLUT4 translocation. […] Cellular assays were performed using mouse myoblast C2C12 cells. […] Serum starved cells (1 hr) were treated for 30 minutes with each of the tested compounds.

[5] = system: p44/42 MAPK / Phos p44/42 MAPK in C2C12 cells; test: p44/42 MAPK:phos p44/42 MAPK ratio by immunocytochemistry, high-content imaging; assay type: cell-based, mouse; details: C2C12, treated 30 minutes, 0.04 nM, FIG. 9
Procedure: Stimulation of AKT pathways and MAPK pathways in ellagic acid dihydrate, metformin, and insulin treated cell cultures was performed. Insulin stimulates glucose uptake into cells by increasing GLUT4 activation, and AKT, specifically phos-AKT, signaling alters GLUT4 translocation. […] Cellular assays were performed using mouse myoblast C2C12 cells. Relative protein levels of AKT:phos AKT and p44/42 MAPK:phos p44/42 MAPK were determined.
Serum starved cells (1 hr) were treated for 30 minutes with each of the tested compounds. Ratios of phosphorylated to non-phosphorylated proteins were determined using immunocytochemistry labeling (anti-AKT, anti-Phos AKT; or anti-p44/42 MAPK, anti-Phos p44/42 MAPK) on a high-content imaging system (Operetta, Perkin Elmer) using the fluorescent signal of anti-rabbit Alexa 647. Increased phosphorylation is indicated as decrease in signal of AKT:Phos AKT ratio (log2 scale) and p44/42 MAPK:Phos p44/42 MAPK ratio (log2 scale) relative to vehicle treated cells.

[6] = system: mouse myoblast C2C12 cells; test: Glucose uptake, 2-NBDG labeling, flow cytometry, C2C12; assay type: cell-based
Procedure: Cellular assays were performed using mouse myoblast C2C12 cells and MEF cells. […] Increased glucose uptake was indicated as increasing signal of 2-NBDG ([…]) in cells. Glucose uptake assays were carried out in a final incubation volume of 50 μl consisting of, 2-NBDG), (100 μM) in 1× Phosphate Buffered Saline w/Ca+, Mg+ (PBS++). The same buffer was used for washing cells. Insulin was used as a positive control. All testing compounds were prepared in 10% DMSO and diluted 1:100 for a final concentration of 0.1% DMSO (vehicle). Cells were culture to 70-90% confluence and then washed twice with PBS++. Cells were incubated for 30 minutes at 37° C. in PBS++. Nuclear stain, HCS CellMask stain (blue, Invitrogen), and/or testing compounds (ellagic acid dihydrate, insulin, or vehicle) were added. Cells were incubated for 30 min at 37° C. Cells were washed twice with PBS++and incubated with 2-NBDG for 10 minutes. Cells were washed thrice with PBS++and then imaged in PBS++. Alternatively, the final PBS wash was removed and cells were incubated with Accutase (Invitrogen) for 10 min at 37° C., neutralized with 10% FBS in 1× PBS, and analyzed by flow cytometry. An additional experiment was performed to measure glucose uptake in C2C12 cells exposed to metformin, insulin and ellagic acid dihydrate 2 (batch 2). FIG. 5C.

[7] = system: GLUT4-GFP in mouse myoblast C2C12 cells; test: Localization of glucose transporter GLUT4-GFP, time-lapse confocal microscopy; assay type: cell-based; details: C2C12, 4000 nM
Procedure: Induction of glucose transporter, GLUT-4, in ellagic acid dihydrate treated cell cultures was studied. Cellular assays were performed using mouse myoblast C2C12 cells. The cells were infected with a fusion glucose transporter 4 green fluorescent protein (GLUT4-GFP). This protein allows the visualization of GLUT4 by imaging the GFP under fluorescent time-lapse microscopy. Frames were compiled to produce time-lapse images of cellular changes with no treatment or treatment with insulin. The localization of glucose transporter (GLUT4-GFP) was performed in final incubation volume of 505 μL, consisting of 500 μL of Hank's Buffer (Invitrogen) and 5 μl of tested compounds. Insulin was used as positive controls and vehicle (0.1% DMSO) as the negative control. All test compounds were prepared in 10% DMSO and diluted 1:100 for a final concentration of 0.1% DMSO (vehicle). The cells were rinsed in Hank's Buffer thrice and then incubated in Hank's Buffer at 37° C. for one hour. The test compounds were added (ellagic acid dihydrate, insulin, or vehicle) and the cells were imaged using laser-confocal microscopy (Leica TCS SP5 X) with FITC fluorescent filters to determine changes in GLUT4-GFP localization. Time-lapse images (TIF) were collected and post-processed using Image-J (NIH) for video construction.

| Compound | glucose uptake per unit dose (MEF cells [1]; in vitro conditions, summary statement) | dose effect for increasing glucose uptake (MEF cells [2]) | blood glucose (female SWV mice; all treatments (LD, HD) compared to control) | body weight lost on average (female SWV mice; 10× higher dose (HD, 406 mg ellagic acid/kg)) | body weight lost on average (female SWV mice; human equivalent dose (LD, 40.6 mg ellagic acid/kg)) | body weight lost on average ([3]; human equivalent dose, daily) | mean glucose level values, treated versus control mice [3] | activity levels (mice) | AKT:Phos AKT ratio (log2 scale) relative to vehicle treated cells [4] | p44/42 MAPK:Phos p44/42 MAPK ratio relative to vehicle treated cells [5] | increased glucose uptake relative to vehicle treated cells (MEF cells [1]; 400 nM exposure, fibroblasts, FIG. 4B) [%] | dose effect for increasing glucose uptake (MEF cells [1]; MEFs, flow cytometry, 4 μM-0.04 nM) | glucose uptake (2-NBDG signal) relative to vehicle (MEF cells [1]; MEFs, flow cytometry, FIG. 4A) | increase in glucose uptake in myoblasts relative to fibroblasts ([6]; C2C12 (FIGS. 5A, 5B) versus MEFs (FIGS. 4A, 4B)) [×] | dose effect for increasing glucose uptake ([6]; C2C12, flow cytometry, 4 μM-0.04 nM) | glucose uptake (2-NBDG signal) relative to vehicle ([6]; C2C12, flow cytometry, FIG. 5A) | glucose uptake (signal of 2-NBDG) in comparison to vehicle (MEF cells [2]) | GLUT4-GFP around the cell nucleus [7] | ruffling of filopodia at the surface of the cell [7] | p44/42 MAPK:Phos p44/42 MAPK ratio relative to vehicle treated cells ([5]; 400 nM) |
| --- | --- | --- | --- | --- | --- | --- | --- | --- | --- | --- | --- | --- | --- | --- | --- | --- | --- | --- | --- | --- |
| O=c1oc2c(O)c(O)cc3c(=O)oc4c(O)c(O)cc1c4c23 [ellagic acid] | little to no glucose uptake per unit dose | no such dose effect | Normal levels of blood glucose | 10.4 % of body weight | 8.9 % of body weight | 11.7 % of body weight | no significant differences | increased activity levels | – | – | – | – | – | – | – | – | – | – | – | – |
| CN(C)C(=N)N=C(N)N [metformin] | – | – | – | – | – | – | – | – | increase in AKT relative to phosphorylation of AKT | increased the ratio of p44/42 MAPK | – | – | – | – | – | – | – | – | – | – |
| insulin: Insulin was used as a positive control [reference compound] | – | showed a dose effect | – | – | – | – | – | – | −0.5 | – | 32 | showed a dose effect | significant increase | ~4 | showed a dose effect | significant increase | showed an increase in glucose uptake | decrease in GLUT4-GFP around the cell nucleus | rapid production of numerous projections | increase in p44/42 MAPK |
